According to publication PMC9967956, “Efficacy of Trichoderma longibrachiatum Trichogin GA IV Peptaibol analogs against the Black Rot Pathogen Xanthomonas campestris pv. campestris and other Phytopathogenic Bacteria” (Microorganisms, 2023):
Converted amounts (≈) assume the structure as drawn. Where a SMILES comes first, the peptide text is derived from it. [ ]: non-standard residue; d: D form. The star is where a group is joined. Azidoacetyl = [N-]=[N+]=NCC(=O)*; Leu(ol) = CC(C)C[C@H](N)CO; Octanoyl = CCCCCCCC(=O)*; nOct = not defined here; Aib = CC(C)(N)C(=O)O

Experiments:
[1] = test system: Xanthomonas campestris pv. campestris strain RC1; assay: Growth inhibition assay against Xcc (OD600); details: LB, 27 °C, 72 h, OD 600 nm, three replicates, two independent experiments
[2] = test system: Xanthomonas campestris pv. campestris; assay: MIC and MBC determinations against Xcc; assay type: cell-based; parameters: key to Bacteriostatic (MIC) / bactericidal (MBC) activity at 0.5 µM / Bacteriostatic (MIC) / bactericidal (MBC) activity at 1 µM / Bacteriostatic (MIC) / bactericidal (MBC) activity at 3 µM / Bacteriostatic (MIC) / bactericidal (MBC) activity at 2 µM: Dashes (-) indicate the absence of bacteriostatic or bactericidal activity; Minimal Inhibitory Concentration (MIC); Minimal Bactericidal Concentration (MBC); MIC and MBC: Minimal Inhibitory Concentration (MIC) and Minimal Bactericidal Concentration (MBC); details: for MIC: lowest concentration that completely inhibited visible growth, 72 h, tested 3, 2, 1 and 0.5 µM; for Bacteriostatic (MIC) / bactericidal (MBC) activity at 0.5 µM: peptide 0.5 µM; for Bacteriostatic (MIC) / bactericidal (MBC) activity at 0.5 µM / Bacteriostatic (MIC) / bactericidal (MBC) activity at 1 µM / Bacteriostatic (MIC) / bactericidal (MBC) activity at 2 µM / Bacteriostatic (MIC) / bactericidal (MBC) activity at 3 µM: 72 h growth inhibition, then plating on LBA 24 h; for Bacteriostatic (MIC) / bactericidal (MBC) activity at 1 µM: peptide 1 µM; for Bacteriostatic (MIC) / bactericidal (MBC) activity at 2 µM: peptide 2 µM; for Bacteriostatic (MIC) / bactericidal (MBC) activity at 3 µM: peptide 3 µM
Experimental: Peptaibols were tested at decreasing concentrations (3, 2, 1 and 0.5 µM). Minimal Bactericidal Concentration (MBC) was determined at the end of the incubation period (72 h) by plating, onto LBA plates, 5 µL samples that were collected from each well with no visible growth.

[3] = test system: P. oryzae; details: cited from earlier work

CCCCCCCC(=O)NC(C)(C)C(=O)N[C@@H](CCCCN)C(=O)N[C@@H](CC(C)C)C(=O)NC(C)(C)C(=O)N[C@@H](CCCCN)C(=O)N[C@@H](CCCCN)C(=O)N[C@@H](CC(C)C)C(=O)NC(C)(C)C(=O)N[C@@H](CCCCN)C(=O)N[C@H](C(=O)N[C@H](CO)CC(C)C)[C@@H](C)CC [Peptide 23] (Octanoyl-[Aib]KL[Aib]KKL[Aib]KI[Leu(ol)])
Inhibition of Xcc growth in vitro ([1]; peptide 3 µM): complete inhibition | MIC [2]: 1 µM (≈ 1.35 µg/mL) | Bacteriostatic (MIC) / bactericidal (MBC) activity at 0.5 µM [2]: -

nOct-Aib-Gly-Leu-Aib-Lys-Gly-Leu-Aib-Gly-Ile-Lol [Peptide 3, full-length synthetic analog of trichogin GA IV, used as negative control]
Inhibition of Xcc growth in vitro ([1]; peptide 15 µM): inactive | MIC [2]: neither bacteriostatic nor bactericidal activity | Bacteriostatic (MIC) / bactericidal (MBC) activity at 0.5 µM [2]: - | Bacteriostatic (MIC) / bactericidal (MBC) activity at 1 µM [2]: - | Bacteriostatic (MIC) / bactericidal (MBC) activity at 2 µM [2]: - | Bacteriostatic (MIC) / bactericidal (MBC) activity at 3 µM [2]: -

CCCCCCCC(=O)NC(C)(C)C(=O)N[C@@H](CCCCN)C(=O)N[C@@H](CC(C)C)C(=O)NC(C)(C)C(=O)N[C@@H](CCCCN)C(=O)NCC(=O)N[C@@H](CC(C)C)C(=O)NC(C)(C)C(=O)N[C@@H](CCCCN)C(=O)N[C@H](C(=O)N[C@@H](CC(C)C)C(N)=O)[C@@H](C)CC [Peptide 5r] (Octanoyl-[Aib]KL[Aib]KGL[Aib]KIL-NH2)
Inhibition of Xcc growth in vitro ([1]; peptide 3 µM): confirmed the Xcc growth inhibition detected at 15 µM | Inhibition of Xcc growth in vitro ([1]; peptide 15 µM): complete inhibition | MIC [2]: 2 µM (≈ 2.59 µg/mL) | Bacteriostatic (MIC) / bactericidal (MBC) activity at 0.5 µM [2]: - | Bacteriostatic (MIC) / bactericidal (MBC) activity at 1 µM [2]: -

nOct-Aib-Lys-Leu-Aib-Gly-Gly-Leu-Aib-Gly-Ile-Leu-NH2 [Peptide 2r]
Inhibition of Xcc growth in vitro ([1]; peptide 15 µM): complete inhibition

CCCCCCCC(=O)NC(C)(C)C(=O)N[C@@H](CCCCN)C(=O)N[C@@H](CC(C)C)C(=O)NC(C)(C)C(=O)NCC(=O)NCC(=O)N[C@@H](CC(C)C)C(=O)NC(C)(C)C(=O)NCC(=O)N[C@H](C(=O)N[C@H](CO)CC(C)C)[C@@H](C)CC [Peptide 2] (Octanoyl-[Aib]KL[Aib]GGL[Aib]GI[Leu(ol)])
Inhibition of Xcc growth in vitro ([1]; peptide 3 µM): complete inhibition | Inhibition of Xcc growth in vitro ([1]; peptide 15 µM): completely inhibit | MIC [2]: 3 µM (≈ 3.41 µg/mL) | Bacteriostatic (MIC) / bactericidal (MBC) activity at 0.5 µM [2]: - | Bacteriostatic (MIC) / bactericidal (MBC) activity at 1 µM [2]: - | Bacteriostatic (MIC) / bactericidal (MBC) activity at 2 µM [2]: - | Bacteriostatic (MIC) / bactericidal (MBC) activity at 3 µM [2]: MIC

nOct-Aib-Lys-Lys-Leu-Aib-Gly-Ile-Leu-NH2 [Peptide 4c2]
Inhibition of Xcc growth in vitro ([1]; peptide 15 µM): no inhibitory effect

nOct-Aib-Gly-Leu-Aib-Gly-Gly-Leu-Aib-Gly-Ile-Lol [Trichogin GA IV, trichogin GA IV]
Inhibition of Xcc growth in vitro ([1]; peptide 15 µM): inactive

CCCCCCCC(=O)NC(C)(C)C(=O)N[C@@H](CCCCN)C(=O)N[C@@H](CC(C)C)C(=O)NC(C)(C)C(=O)N[C@@H](CCCCN)C(=O)N[C@@H](CCCCN)C(=O)N[C@@H](CC(C)C)C(=O)NC(C)(C)C(=O)NCC(=O)N[C@H](C(=O)N[C@@H](CC(C)C)C(N)=O)[C@@H](C)CC [Peptide 24r] (Octanoyl-[Aib]KL[Aib]KKL[Aib]GIL-NH2)
Inhibition of Xcc growth in vitro ([1]; peptide 3 µM): confirmed the Xcc growth inhibition detected at 15 µM | Inhibition of Xcc growth in vitro ([1]; peptide 15 µM): complete inhibition | MIC [2]: 1 µM (≈ 1.29 µg/mL) | Bacteriostatic (MIC) / bactericidal (MBC) activity at 0.5 µM [2]: - | Bacteriostatic (MIC) / bactericidal (MBC) activity at 1 µM [2]: MIC

CCCCCCCC(=O)NC(C)(C)C(=O)NCC(=O)N[C@@H](CC(C)C)C(=O)NC(C)(C)C(=O)NCC(=O)N[C@@H](CCCCN)C(=O)N[C@@H](CC(C)C)C(=O)NC(C)(C)C(=O)NCC(=O)N[C@H](C(=O)N[C@H](CO)CC(C)C)[C@@H](C)CC [Peptide 22]
Inhibition of Xcc growth in vitro ([1]; peptide 3 µM): complete inhibition | MIC [2]: 2 µM (≈ 2.28 µg/mL) | Bacteriostatic (MIC) / bactericidal (MBC) activity at 0.5 µM [2]: - | Bacteriostatic (MIC) / bactericidal (MBC) activity at 1 µM [2]: - | Bacteriostatic (MIC) / bactericidal (MBC) activity at 3 µM [2]: -

nOct-Aib-Gly-Leu-Aib-Gly-Gly-Leu-Api-Ile-Lol [Peptide 8ApiC]
Inhibition of Xcc growth in vitro ([1]; peptide 3 µM): did not reduce

CC[C@H](C)[C@H](NC(=O)[C@H](CCCCN)NC(=O)C(C)(C)NC(=O)[C@H](CC(C)C)NC(=O)[C@H](CCCCN)NC(=O)[C@H](CCCCN)NC(=O)C(C)(C)NC(=O)[C@H](CC(C)C)NC(=O)[C@H](CCCCN)NC(=O)C(C)(C)NC(=O)CN=[N+]=[N-])C(=O)N[C@H](CO)CC(C)C [Peptide 9] (Azidoacetyl-[Aib]KL[Aib]KKL[Aib]KI[Leu(ol)])
Inhibition of Xcc growth in vitro ([1]; peptide 3 µM): complete inhibition | MIC [2]: 1 µM (≈ 1.31 µg/mL) | Bacteriostatic (MIC) / bactericidal (MBC) activity at 0.5 µM [2]: - | Bacteriostatic (MIC) / bactericidal (MBC) activity at 1 µM [2]: MIC

nOct-Aib-Gly-Leu-Aib-Lys-Lys-Leu-Leu-NH2 (nOct-[Aib]GL[Aib]KKLL-NH2; reading uncertain) [Peptide 4c1]
Inhibition of Xcc growth in vitro ([1]; peptide 15 µM): weakly effective

nOct-Aib-Lys-Leu-Aib-Lys-Gly-Leu-Aib-Lys-Ile-Lol [Peptide 5]
Inhibition of Xcc growth in vitro ([1]; peptide 3 µM): did not reduce

nOct-Toac-Gly-Leu-Aib-Gly-Gly-Leu-Aib-Arg-Ile-Lol [Peptide 11]
Inhibition of Xcc growth in vitro ([1]; peptide 3 µM): did not reduce

nOct-Aib-Gly-Leu-Aib-Lys-Lys-Leu-Aib-Gly-Ile-Lol [Peptide 4]
Inhibition of Xcc growth in vitro ([1]; peptide 3 µM): did not reduce

nOct-Aib-Gly-Leu-Aib-Gly-Gly-Leu-Api-Gly-Ile-Lol [Peptide 8]
Inhibition of Xcc growth in vitro ([1]; peptide 3 µM): did not reduce

CCCCCCCC(=O)NC(C)(C)C(=O)N[C@@H](CCCCN)C(=O)N[C@@H](CC(C)C)C(=O)NC(C)(C)C(=O)N[C@@H](CCCCN)C(=O)N[C@@H](CCCCN)C(=O)N[C@@H](CC(C)C)C(=O)NC(C)(C)C(=O)NCC(=O)N[C@H](C(=O)N[C@H](CO)CC(C)C)[C@@H](C)CC [Peptide 24] (Octanoyl-[Aib]KL[Aib]KKL[Aib]GI[Leu(ol)])
Inhibition of Xcc growth in vitro ([1]; peptide 3 µM): complete inhibition | MIC [2]: 1 µM (≈ 1.28 µg/mL) | Bacteriostatic (MIC) / bactericidal (MBC) activity at 0.5 µM [2]: - | Bacteriostatic (MIC) / bactericidal (MBC) activity at 1 µM [2]: MIC

nOct-Aib-Lys-Leu-Aib-Gly-Lys-Leu-Aib-Gly-Ile-Lol [Peptide 7]
Inhibition of Xcc growth in vitro ([1]; peptide 3 µM): partial growth inhibition effect | Inhibition of Xcc growth in vitro ([1]; peptide 15 µM): completely inhibit

nOct-Aib-Lys-Leu-Aib-Lys-Gly-Leu-Aib-Gly-Ile-Lol [Peptide 1]
Inhibition of Xcc growth in vitro ([1]; peptide 3 µM): complete inhibition | Inhibition of Xcc growth in vitro ([1]; peptide 15 µM): completely inhibit

nOct-Aib-Gly-Leu-Aib-Lys-Aib-Leu-Aib-Gly-Ile-Lol [Peptide 6, full-length synthetic analog of trichogin GA IV]
Inhibition of Xcc growth in vitro ([1]; peptide 3 µM): partial growth inhibition effect | Inhibition of Xcc growth in vitro ([1]; peptide 15 µM): completely inhibit | Inhibition of P. oryzae [3]: strain-dependent inhibition

nOct-Aib-Gly-Leu-Aib-Lys-Aib-Leu-Aib-Gly-Ile-Leu-NH2 [Peptide 6r]
Inhibition of Xcc growth in vitro ([1]; peptide 15 µM): weakly effective

nOct-Aib-Gly-Leu-Aib-Gly-Gly-Leu-Aib-Lys-Ile-Lol [Peptide 25]
Inhibition of Xcc growth in vitro ([1]; peptide 3 µM): did not reduce

nOct-Aib-Gly-Leu-Aib-Gly-Lys-Leu-Aib-Gly-Ile-Leu-NH2 [Peptide 22r]
Inhibition of Xcc growth in vitro ([1]; peptide 15 µM): complete inhibition

CCCCCCCC(=O)NC(C)(C)C(=O)N[C@@H](CCCCN)C(=O)N[C@@H](CCCCN)C(=O)N[C@@H](CC(C)C)C(=O)NC(C)(C)C(=O)NCC(=O)N[C@H](C(=O)N[C@H](CO)CC(C)C)[C@@H](C)CC [Peptide 4c] (Octanoyl-[Aib]KKL[Aib]GI[Leu(ol)])
Inhibition of Xcc growth in vitro ([1]; peptide 3 µM): confirmed the Xcc growth inhibition detected at 15 µM | Inhibition of Xcc growth in vitro ([1]; peptide 15 µM): completely inhibited | MIC [2]: 3 µM (≈ 2.86 µg/mL) | Bacteriostatic (MIC) / bactericidal (MBC) activity at 0.5 µM [2]: - | Bacteriostatic (MIC) / bactericidal (MBC) activity at 1 µM [2]: - | Bacteriostatic (MIC) / bactericidal (MBC) activity at 2 µM [2]: - | Bacteriostatic (MIC) / bactericidal (MBC) activity at 3 µM [2]: MIC

CCCCCCCC(=O)NC(C)(C)C(=O)N[C@@H](CCCCN)C(=O)N[C@@H](CC(C)C)C(=O)NC(C)(C)C(=O)N[C@@H](CCCCN)C(=O)N[C@@H](CCCCN)C(=O)N[C@@H](CC(C)C)C(=O)NC(C)(C)C(=O)N[C@@H](CCCCN)C(=O)N[C@H](C(=O)N[C@@H](CC(C)C)C(=O)NC(C)(C)C(=O)N[C@@H](CCCCN)C(=O)N[C@@H](CC(C)C)C(=O)NC(C)(C)C(=O)N[C@@H](CCCCN)C(=O)N[C@@H](CCCCN)C(=O)N[C@@H](CC(C)C)C(=O)NC(C)(C)C(=O)N[C@@H](CCCCN)C(=O)N[C@H](C(=O)N[C@H](CO)CC(C)C)[C@@H](C)CC)[C@@H](C)CC [Peptide 10] (Octanoyl-[Aib]KL[Aib]KKL[Aib]KIL[Aib]KL[Aib]KKL[Aib]KI[Leu(ol)])
Inhibition of Xcc growth in vitro ([1]; peptide 3 µM): complete inhibition | MIC [2]: 2 µM (≈ 5.14 µg/mL) | Bacteriostatic (MIC) / bactericidal (MBC) activity at 0.5 µM [2]: - | Bacteriostatic (MIC) / bactericidal (MBC) activity at 1 µM [2]: -
